Several values for one entry are separate records, joined by “and”; a condition that tells them apart may be missing. Equal values may be shown once. Toxic doses and inconclusive results are not listed.

The subject of the experiment is P388 leukemia ip, CD2F1 mice, survival T/C. The experiment in a line: NCI In Vivo Anticancer Drug Screen. Data for tumor model P388 Leukemia (intraperitoneal) in CD2F1 (CDF1) mice. The note with it: endpoint: median survival time, higher = longer survival. An outline of the steps:
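Mice carrying the transplanted tumor received test compound or vehicle. Survival was recorded in each group, and the value is the treated-group measurement divided by that of the vehicle-treated control group.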

Where [1] appears, read: dose: 12.5 mg/kg/injection, schedule: Q01DX009 (ip), vehicle: saline with Tween-80.
Where [2] appears, read: dose: 25.0 mg/kg/injection, schedule: Q01DX009 (ip), vehicle: saline with Tween-80.
Setting [3] is: dose: 50.0 mg/kg/injection, schedule: Q01DX009 (ip), vehicle: saline with Tween-80.
Setting [4] is: dose: 50.0 mg/kg/injection, schedule: Q01DX009 (ip), vehicle: saline.
Where [5] appears, read: dose: 50.0 mg/kg/injection, schedule: Q01DX005 (ip), vehicle: saline with Tween-80.
Setting [6] is: dose: 100.0 mg/kg/injection, schedule: Q01DX005 (ip), vehicle: saline with Tween-80.
The mark [7] stands for this setting: dose: 50.0 mg/kg/injection, schedule: Q01DX009 (ip), vehicle: water.
The mark [8] stands for this setting: dose: 100.0 mg/kg/injection, schedule: Q01DX009 (ip), vehicle: water.
Setting [9] is: dose: 25.0 mg/kg/injection, schedule: Q04DX003 (ip), vehicle: saline.
[10] abbreviates: dose: 50.0 mg/kg/injection, schedule: Q04DX003 (ip), vehicle: saline.
[11] abbreviates: dose: 50.0 mg/kg/injection, schedule: Q01DX005 (ip), vehicle: Klucel (hydroxypropylcellulose) (HPC).
[12] abbreviates: dose: 100.0 mg/kg/injection, schedule: Q01DX005 (ip), vehicle: Klucel (hydroxypropylcellulose) (HPC).

In the case of `CC12C(=Nc3ccccc31)CCc1ccccc12` (stereo not given), the T/C (dose: 50.0 mg/kg/injection, schedule: Q01DX005 (ip), vehicle: saline + Tween-80 + alcohol) is 99 % of control; the T/C (dose: 100.0 mg/kg/injection, schedule: Q01DX005 (ip), vehicle: saline + Tween-80 + alcohol) is 100 % of control; the T/C (dose: 200.0 mg/kg/injection, schedule: Q01DX005 (ip), vehicle: saline + Tween-80 + alcohol) was 100 % of control.

As to `O=c1c2cnc(-c3ccccc3)nc2oc2ccc3ccccc3c12`, the T/C was 97 % of control under setting [1]; 96 % of control under setting [2]; 87 % of control and 92 % of control under setting [3]; 90 % of control (dose: 100.0 mg/kg/injection, schedule: Q01DX009 (ip), vehicle: saline with Tween-80).

Regarding `CC1(C(F)(F)F)CC(=O)NN1` (stereo not given), the T/C (dose: 25.0 mg/kg/injection, schedule: Q01DX009 (ip), vehicle: saline) is 104 % of control and the T/C under setting [4] was 118 % of control.

With `CC(=O)NC(Cc1ccc(N(CCCl)CCCl)cc1)C(=O)NC(CC(C)C)C(=O)O` (stereo not given), the T/C runs as follows: (dose: 5.0 mg/kg/injection, schedule: Q04DX003 (ip), vehicle: water) 100 % of control; (dose: 8.4 mg/kg/injection, schedule: Q04DX003 (ip), vehicle: saline with Tween-80) 111 % of control; (dose: 10.0 mg/kg/injection, schedule: Q04DX003 (ip), vehicle: water) 95 % of control; (dose: 18.9 mg/kg/injection, schedule: Q04DX003 (ip), vehicle: saline with Tween-80) 121 % of control; (dose: 20.0 mg/kg/injection, schedule: Q04DX003 (ip), vehicle: water) 118 % of control; (dose: 42.6 mg/kg/injection, schedule: Q04DX003 (ip), vehicle: saline with Tween-80) 173 % of control. Besides, the T/C was 166 % of control (dose: 64.0 mg/kg/injection, schedule: Q04DX003 (ip), vehicle: saline with Tween-80) and 180 % of control (dose: 96.0 mg/kg/injection, schedule: Q04DX003 (ip), vehicle: saline with Tween-80).

For `CC1C(=O)C(C)C(c2ccccc2)NC1c1ccccc1` (stereo not given), the T/C reads like this: under setting [4], 99 % of control; (dose: 100.0 mg/kg/injection, schedule: Q01DX009 (ip), vehicle: saline) 98 % of control; (dose: 200.0 mg/kg/injection, schedule: Q01DX009 (ip), vehicle: saline) 89 % of control.

Consider `CCN(CC)c1ccc2[nH]c3c(C(N)=O)cc(=O)c(=O)c=3oc2c1`, for which the T/C reads like this: (dose: 12.5 mg/kg/injection, schedule: Q01DX005 (ip), vehicle: saline with Tween-80) 104 % of control and 107 % of control; (dose: 25.0 mg/kg/injection, schedule: Q01DX005 (ip), vehicle: saline with Tween-80) 104 % of control and 117 % of control; under setting [5], 107 % of control and 120 % of control; under setting [6], 113 % of control and 122 % of control and 123 % of control.

On to `O=[N+]([O-])c1ccc2nc(CCl)[nH]c2c1`, for which the T/C reads like this: under setting [1], 103 % of control; under setting [2], 116 % of control; under setting [3], 99 % of control and 111 % of control.

As to `CCOC(=O)c1c(C#N)c2ccccc2n1O`, the T/C was 110 % of control (dose: 25.0 mg/kg/injection, schedule: Q01DX001 (ip), vehicle: distilled water + Tween-80); 106 % of control (dose: 50.0 mg/kg/injection, schedule: Q01DX001 (ip), vehicle: distilled water + Tween-80); 110 % of control (dose: 100.0 mg/kg/injection, schedule: Q01DX001 (ip), vehicle: distilled water + Tween-80); 97 % of control (dose: 100.0 mg/kg/injection, schedule: Q01DX001 (ip), vehicle: saline with Tween-80); 99 % of control (dose: 400.0 mg/kg/injection, schedule: Q01DX001 (ip), vehicle: saline with Tween-80).

Consider `COc1cc(C2NCCc3cc4c(cc32)OCO4)cc(OC)c1OC` (stereo not given), for which the T/C is 100 % of control under setting [5] and 100 % of control under setting [6].

Consider `OC1CCC2SC1CCC2O` (stereo not given), for which the T/C was 95 % of control under setting [7]; 102 % of control under setting [8]; 108 % of control (dose: 200.0 mg/kg/injection, schedule: Q01DX009 (ip), vehicle: water); 100 % of control (dose: 400.0 mg/kg/injection, schedule: Q01DX009 (ip), vehicle: water).

Consider `C[N+]1(C)CCC(Cc2ccccc2)CC1`, for which the T/C was 101 % of control (dose: 6.25 mg/kg/injection, schedule: Q01DX005 (ip), vehicle: saline) and 92 % of control (dose: 12.5 mg/kg/injection, schedule: Q01DX005 (ip), vehicle: saline).

`O=C(CCCCl)CC(O)(C(F)(F)Cl)C(F)(F)Cl`: the T/C reads like this: under setting [9], 100 % of control; under setting [10], 100 % of control; (dose: 100.0 mg/kg/injection, schedule: Q04DX003 (ip), vehicle: saline) 95 % of control.

As for `CN(C)C1c2cc(Cl)ccc2-c2c(N)cc(Cl)cc21` (stereo not given), the T/C under setting [11] is 103 % of control; the T/C under setting [12] is 99 % of control; the T/C (dose: 200.0 mg/kg/injection, schedule: Q01DX005 (ip), vehicle: Klucel (hydroxypropylcellulose) (HPC)) is 91 % of control.

With `NC(=O)NCCSc1ccc(SCCNC(N)=O)nn1`, the T/C was 109 % of control (dose: 50.0 mg/kg/injection, schedule: Q01DX009 (ip), vehicle: Klucel (hydroxypropylcellulose) (HPC)); 100 % of control (dose: 100.0 mg/kg/injection, schedule: Q01DX009 (ip), vehicle: Klucel (hydroxypropylcellulose) (HPC)); 98 % of control (dose: 200.0 mg/kg/injection, schedule: Q01DX009 (ip), vehicle: Klucel (hydroxypropylcellulose) (HPC)); 90 % of control (dose: 400.0 mg/kg/injection, schedule: Q01DX009 (ip), vehicle: Klucel (hydroxypropylcellulose) (HPC)).

For `N=C(N)c1ccc(NC(=O)c2cc3ccc(C(=N)N)cc3o2)cc1`, the T/C is 101 % of control (dose: 12.5 mg/kg/injection, schedule: Q04DX003 (ip), vehicle: saline); 101 % of control under setting [9]; 102 % of control under setting [10].

Take `CC(=O)C1=C([Si](C)(C)C)N=NC1(C)C`: the T/C is 111 % of control under setting [5]; 109 % of control under setting [6]; 102 % of control (dose: 200.0 mg/kg/injection, schedule: Q01DX005 (ip), vehicle: saline with Tween-80).

On to `CCN(CC)CCOC(=O)Nc1c(Cl)cccc1Cl`, for which the T/C was 100 % of control (dose: 25.0 mg/kg/injection, schedule: Q01DX005 (ip), vehicle: Klucel (hydroxypropylcellulose) (HPC)); 107 % of control under setting [11]; 100 % of control (dose: 60.0 mg/kg/injection, schedule: Q01DX005 (ip), vehicle: Klucel (hydroxypropylcellulose) (HPC)); 100 % of control under setting [12].

With `COc1cccc2c1C(=O)c1c(O)c3c(c(O)c1C2=O)C[C@@](O)(/C(CO)=N/NC(=O)c1ccc(Cl)c(Cl)c1)C[C@@H]3OC1CC(NC(=S)Nc2ccc(F)cc2)C(O)C(C)O1` (stereo not given in full), the T/C reads like this: (dose: 0.1 mg/kg/injection, schedule: Q01DX009 (ip), vehicle: water) 99 % of control; (dose: 0.2 mg/kg/injection, schedule: Q01DX009 (ip), vehicle: water) 113 % of control; (dose: 0.4 mg/kg/injection, schedule: Q01DX009 (ip), vehicle: water) 109 % of control; (dose: 0.8 mg/kg/injection, schedule: Q01DX009 (ip), vehicle: water) 111 % of control; (dose: 12.5 mg/kg/injection, schedule: Q01DX009 (ip), vehicle: water) 94 % of control; (dose: 25.0 mg/kg/injection, schedule: Q01DX009 (ip), vehicle: water) 91 % of control and 94 % of control. Moreover, the T/C was 91 % of control under setting [7] and 92 % of control under setting [8].

As to `CN1C(Cl)=NS(=O)(=O)c2ccccc21`, the T/C runs as follows: (dose: 30.0 mg/kg/injection, schedule: Q01DX005 (ip), vehicle: saline with Tween-80) 120 % of control; (dose: 60.0 mg/kg/injection, schedule: Q01DX005 (ip), vehicle: saline with Tween-80) 112 % of control and 95 % of control.
